Laboratory results as given in US8569339B2, “Soluble guanylate cyclase activators” (Boehringer Ingelheim International GmbH, priority 2011, dated 2013).
pEC50: −log10 of the molar value. ≈ marks a conversion by molar mass, not a printed value.

How the values were obtained:
[1] = target: T1, Recombinant human soluble guanylate cyclase (sGC) (Homo sapiens, UniProt Q02153); experiment: Molecular assay: activation of heme-free sGC, cGMP detection (CisBio kit); type: biochemical; settings: 300 pM heme-free sGC, 37° C., 60 minutes, cGMP formation
T1 construct: histidine tag (C); made in house; host or cells: Sf9 insect cells (baculovirus coinfection)
T1 sequence (Q02108 whole entry partner): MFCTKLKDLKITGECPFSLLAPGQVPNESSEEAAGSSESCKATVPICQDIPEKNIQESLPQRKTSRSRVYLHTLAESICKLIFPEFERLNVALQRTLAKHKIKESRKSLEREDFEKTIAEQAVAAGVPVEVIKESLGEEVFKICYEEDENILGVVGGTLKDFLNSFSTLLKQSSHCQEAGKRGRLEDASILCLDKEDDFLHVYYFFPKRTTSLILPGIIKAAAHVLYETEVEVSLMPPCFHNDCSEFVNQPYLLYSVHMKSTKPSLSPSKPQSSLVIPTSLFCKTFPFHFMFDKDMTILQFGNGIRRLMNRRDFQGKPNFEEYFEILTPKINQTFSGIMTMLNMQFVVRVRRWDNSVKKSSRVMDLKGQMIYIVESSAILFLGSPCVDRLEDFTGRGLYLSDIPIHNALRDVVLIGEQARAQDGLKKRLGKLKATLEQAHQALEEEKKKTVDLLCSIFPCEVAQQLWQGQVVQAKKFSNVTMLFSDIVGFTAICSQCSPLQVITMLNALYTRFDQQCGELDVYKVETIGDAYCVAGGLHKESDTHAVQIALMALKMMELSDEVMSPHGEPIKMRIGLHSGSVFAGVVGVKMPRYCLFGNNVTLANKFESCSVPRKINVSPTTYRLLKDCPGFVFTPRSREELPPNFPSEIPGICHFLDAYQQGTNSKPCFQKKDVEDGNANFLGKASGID
T1 sequence (Q02153 whole entry): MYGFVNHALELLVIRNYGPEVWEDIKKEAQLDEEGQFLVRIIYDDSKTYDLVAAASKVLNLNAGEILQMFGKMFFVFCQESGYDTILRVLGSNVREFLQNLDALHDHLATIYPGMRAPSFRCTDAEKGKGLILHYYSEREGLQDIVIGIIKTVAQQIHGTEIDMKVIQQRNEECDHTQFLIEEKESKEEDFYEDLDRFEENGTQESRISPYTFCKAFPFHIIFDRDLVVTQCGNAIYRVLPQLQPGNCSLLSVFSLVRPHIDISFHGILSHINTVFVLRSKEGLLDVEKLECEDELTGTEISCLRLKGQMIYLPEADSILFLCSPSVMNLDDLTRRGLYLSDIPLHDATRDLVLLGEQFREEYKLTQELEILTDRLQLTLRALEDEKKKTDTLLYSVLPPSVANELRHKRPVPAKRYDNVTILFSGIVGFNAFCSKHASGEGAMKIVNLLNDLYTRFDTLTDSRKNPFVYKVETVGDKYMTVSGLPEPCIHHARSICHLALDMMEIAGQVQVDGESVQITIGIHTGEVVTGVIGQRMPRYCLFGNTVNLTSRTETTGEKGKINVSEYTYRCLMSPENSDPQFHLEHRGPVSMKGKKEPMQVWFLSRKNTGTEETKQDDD
Description: The compounds of the invention may be evaluated in the following molecular assay:
Recombinant human soluble guanylate cyclase (sGC) is purified from Sf9 insect cells coinfected with baculoviruses expressing the alpha 1 or beta 1 subunit of sGC, both with a C-terminal histidine tag. Heme-free sGC is prepared by treating cell lysate with a final concentration of 0.5% Tween 20 prior to purification on a nickel affinity column.
sGC catalyzes the conversion of guanosine-5′-triphosphate (GTP) to cyclic guanosine monophosphate (cGMP). The activity of sGC is measured in vitro using the commercially available CisBio cGMP detection kit (catalog #62GM2PEB) in a 384 well format. In brief, 300 pM heme-free sGC is incubated in reaction buffer (50 mM MOPS pH 6.8, 0.2 N KOH, 50 mM NaCl, 2 mM MgCl2, 0.1% BSA, 1.25 mM IBMX, 0.25 mM TCEP, 50 nM GTP) in the presence or absence of dilutions of test compounds diluted in DMSO (final concentration of 1%) in a volume of 10 microL at 37° C. for 60 minutes. Undiluted reaction products or an 80-fold dilution of reaction products (10 microL of either) prepared in reaction buffer containing 0.2 mM TCEP and 10 mM EDTA is mixed with 5 microL of d2-cGMP plus 5 microL of Eu^3+cryptate-labeled anti-cGMP, each diluted in buffer containing 0.1 M KPO4 pH 7.5, 0.4 M KF, 20 mM EDTA, 0.2% BSA. After a one hour incubation at room temperature in the dark, the mixtures are quantified on an EnVision plate reader (PerkinElmer) according to manufacturer instructions (laser excitation 337 nm, emission 620 and 665 nm). The ratio at each compound concentration is converted to nM cGMP using the linear portion of a calibration curve. Log compound concentration is plotted against combined undiluted and diluted nM cGMP values to determine the EC50 for each curve.
Representative compounds of the present invention were tested for activity in the above assay. Preferred compounds have an IC50<5,000 nM and more preferred compounds have an IC50<100 nM in this assay.

[2] = Assessment of solubility (HT solubility, pION, UV); type: physicochemical; settings: incubated 16-19 hours, 1.0% DMSO, 100 uM; for solubility kinetic: pH 4.5 buffer (pION system solution), pH 4.5, aqueous buffer, kinetic from dmso stock, pH 4.5 buffer, read-out: Sol pH 4.5; for Sol pH 7.4: pH 7.4 buffer
Description: Solubility is measured by the following method.
DMSO stock samples at 10 mM conc are prepared. […] The samples are pierced and 100 ul of thawed samples are transferred into the PCR plate for analysis. Each sample is run in duplicate at each pH (pH 4.5 and 7.4). Up to 95 samples can be run in replicate at 2 pH's+1 DMSO (blank).
2. Preparation of pH 4.5 and 7.4 buffers:
pH 4.5 buffer: To 12.5 of system solution (pION) qs to 500 mL of distilled water (pH 2.85-2.90); adjust the pH to pH 4.5 with 0.5 N NaOH.
pH 7.4 buffer: To 12.5 of system solution (pION) qs to 500 mL of distilled water (pH 2.85-2.90); adjust the pH to pH 7.4 with 0.5N NaOH.
Preparation of UV blank plate:
75 ul of buffer (pH 7.4 or pH 4.5) is added to UV plate followed by addition of […] of N-propanol. The solution is mixed and the blank spectrum is read using spectrophotometer.
Preparation of Reference UV plate:
10 ul of each stock sample (including DMSO control) is added to 190 ul of N-propanol to prepare the reference stock plate. Reference stock samples are mixed and 5 ul of each stock sample is added to UV blank plate after it is read spectrophotometrically. The reference stock sample is mixed with blank solution in UV plate and the reference spectrum is read using UV spectrophotometer.
Preparation of sample for incubation:
Solubility at pH 7.4: 6 ul of each stock sample (including DMSO control) is added to the storage plate containing 600 ul of pH 7.4 buffer, mixed and incubated for 16-19 hours. The plate is sealed well during the incubation process. The DMSO content in the sample is 1.0%. The concn in deep well plates is 100 uM
6 ul of each stock sample (including DMSO control) is added to the deep well plate containing 600 ul of pH 4.5 buffer, mixed and incubated for 16-19 hours. The plate is sealed well during the incubation process. The DMSO content in the sample is 1.0%. The concn in deep well plates is 100 uM
Preparation of sample UV plate:
At the end of the incubation period, 100 uL of sample from the storage plate is vacuum filtered using a filter plate. This step wets the filters and the filtrate is discarded. Another 200 ul of the sample from the deep well plate is vacuum filtered using the same filter block but a clean filter plate. 75 ul of the filtrate from the filter plate is transferred to a UV sample plate. 75 ul of N-propanol is added to this UV plate. The solution is mixed and the spectrum is read using the UV spectrophotometer.
The spectra collected for blank, reference and sample from 250-498 nm is analyzed using pION software. If the sample precipitates out, the solubility is reported as XX μg/ml. If there is no precipitation and the sample is soluble, solubility is reported as […] (YY being the initial concentration of the compound in the sample).

Row | pEC50 [1] | solubility kinetic [2] [µg/mL] | Sol pH 7.4 [2] [μg/mL] | SMILES
1 | 7.68 | > 78 | >78 | Cc1cccc(-c2cccc(-n3ncc(C(=O)O)c3C)n2)c1OCc1ccc2c(c1)CCN(C1CCOCC1)C2 [Compound 64]
2 | 9.00 | > 59 | >59 | Cc1ccc(OCc2ccc3c(c2)CCN(C2CCCOC2)C3)c(-c2cccc(-n3ncc(C(=O)O)c3C(F)(F)F)n2)c1 (stereo not drawn) [Compound 22]
3 | 7.03 | > 60 | >60 | Cc1cccc(-c2cccc(-c3c(C)c(C(=O)O)nn3CCC(=O)O)n2)c1OCc1ccc2c(c1)CCN(C1CCOCC1)C2 [Compound 85]
4 | 7.82 | 49 (≈ 80 µM) | 50.2 | Cc1cccc(-c2cccc(-c3c(C)c(C(=O)O)nn3C3CC3)n2)c1OCc1ccc2c(c1)CCN(C1CCC(F)(F)CC1)C2 [Compound 90]
5 | 8.05 | 40 (≈ 66.6 µM) | >59 | Cc1ccc(OCc2ccc3c(c2)CCN(Cc2cnccn2)C3)c(-c2cccc(-n3ncc(C(=O)O)c3C(F)(F)F)n2)c1 [Compound 24]
6 | 7.96 | > 79 | 44.4 | Cc1ccc(OCc2ccc3c(c2C)CCN(CC2CCOC2)C3)c(-c2cccc(-c3csc(C(=O)O)c3C)n2)c1 (stereo not drawn) [Compound 14]
7 | 7.11 | 0.5 (≈ 0.908 µM) | >54 | CC(=O)N1CCc2cc(COc3ccc(C)cc3-c3cccc(-n4ncc(C(=O)O)c4C(F)(F)F)n3)ccc2C1 [Compound 6, 1-{6-[2-(2-acetyl-1,2,3,4-tetrahydroisoquinolin-6-ylmethoxy)-5-methylphenyl]pyridin-2-yl}-5-trifluoromethyl-1H-pyrazole-4-carboxylic acid]
8 | 6.87 | > 53 | >53 | Cc1ccc(OCc2ccc3c(c2)CCN(C2CCOCC2)C3)c(-c2cccc(-n3ncc(C(=O)O)c3C)n2)c1 [Compound 65]
9 | 5.92 | > 80 | >80 | Cc1ccc(OCc2ccc3c(c2)CCN(C2CCOCC2)C3)c(-c2cccc(-c3c(C)c(C(=O)O)nn3C)n2)c1 [Compound 79]
10 | 6.01 | 24.1 (≈ 48.5 µM) | 24.2 | Cc1ccc(OCc2ccc3c(c2C)CCN(C)C3)c(-c2cccc(-c3c(C)c(C(=O)O)nn3C)n2)c1 [Compound 78]
11 | 7.72 | > 62 | >62 | Cc1ccc(OCc2ccc3c(c2)CCN(CCC2CCOCC2)C3)c(-c2cccc(-n3ncc(C(=O)O)c3C(F)(F)F)n2)c1 [Compound 25]
12 | 6.26 | > 63 | 42.1 | Cc1ccc(OCc2ccc3c(c2)CN(C)CC3)c(-c2cccc(-n3ncc(C(=O)O)c3C(F)(F)F)n2)c1 [Compound 52]
13 | 7.72 | > 54 | >54 | Cc1ccc(OCc2ccc3c(c2)CCN(C2CC2)C3)c(-c2cccc(-n3ncc(C(=O)O)c3C(F)(F)F)n2)c1 [Compound 12]

The remaining lines, values behind:

Row | SMILES | pEC50 [1] | solubility kinetic [2] [µg/mL] | Sol pH 7.4 [2] [μg/mL]
14 | Cc1ccc(OCc2ccc3snnc3c2)c(-c2cccc(-n3ncc(C(=O)O)c3C(F)(F)F)n2)c1 [Compound 7, 1-{6-[2-(benzo[1,2,3]thiadiazol-5-ylmethyoxy)-5-methylphenyl]pyridin-2-yl}-5-trifluoromethyl-1H-pyrazole-4-carboxylic acid] | 6.31 | 2.1 (≈ 4.11 µM) | >51
15 | Cc1ccc(OCc2ccc3c(c2)CCN(CC2CCOC2)C3)c(-c2cccc(-n3ncc(C(=O)O)c3C(F)(F)F)n2)c1 (stereo not drawn) [Compound 23] | 8.70 | > 59 | >59
16 | Cc1ccc(OCc2ccc3c(c2)CCN(C)CC3)c(-c2cccc(-n3ncc(C(=O)O)c3C(F)(F)F)n2)c1 [Compound 40] | 7.49 | 16.3 (≈ 30.4 µM) | 18.5
17 | Cc1ccc(OCc2ccc3c(c2C)CCN(C)C3)c(-c2cccc(-n3ncc(C(=O)O)c3C(F)(F)F)n2)c1 [Compound 38] | 7.34 | 15.5 (≈ 28.9 µM) | 18.4
18 | Cc1cccc(-c2cccc(-c3nc(C)c(C(=O)O)s3)n2)c1OCc1ccc2c(c1)CCN(C1CCOCC1)C2 [Compound 59, 4-methyl-2-[6-[3-methyl-2-[(2-tetrahydropyran-4-yl-3,4-dihydro-1H-isoquinolin-6-yl)methoxy]phenyl]-2-pyridyl]thiazole-5-carboxylic acid] | 5.38 | > 110 | >110
19 | Cc1ccc(OCc2ccc3c(c2)CCN(C2CCCC2)C3)c(-c2cccc(-n3ncc(C(=O)O)c3C(F)(F)F)n2)c1 [Compound 17] | 7.89 | 44.3 (≈ 76.8 µM) | >68
20 | Cc1cccc(-c2cccc(-c3onc(C(=O)O)c3C)n2)c1OCc1ccc2c(c1)CCN(C1CCOCC1)C2 [Compound 86, 4-methyl-5-[6-[3-methyl-2-[(2-tetrahydropyran-4-yl-3,4-dihydro-1H-isoquinolin-6-yl)methoxy]phenyl]-2-pyridyl]isoxazole-3-carboxylic acid] | 6.11 | > 65 | >65
21 | Cc1ccc(OCc2ccc3c(c2)CCN(C)C3=O)c(-c2cccc(-n3ncc(C(=O)O)c3C(F)(F)F)n2)c1 [Compound 8] | 6.55 | 6.9 (≈ 12.9 µM) | >53
22 | Cc1ccc(OCc2ccc3c(c2)CCN(C)C3)c(-c2cccc(-n3ncc(C(=O)O)c3C(F)(F)F)n2)c1 [Compound 2, 1-{6-[5-methyl-2-(2-methyl-1,2,3,4-tetrahydroisoquinolin-6-ylmethoxy)phenyl]pyridin-2-yl}-5-trifluoromethyl-1H-pyrazole-4-carboxylic acid] | 7.34 | 6.5 (≈ 12.4 µM) | 6.1
23 | Cc1ccc(OCc2ccc3c(c2)CCN(C(C)C)C3)c(-c2cccc(-n3ncc(C(=O)O)c3C(F)(F)F)n2)c1 [Compound 21] | 7.60 | > 55 | >55
24 | Cc1ccc(OCc2ccc3c(c2)CCN(Cc2ccccn2)C3)c(-c2cccc(-n3ncc(C(=O)O)c3C(F)(F)F)n2)c1 [Compound 18] | 9.10 | > 59 | >59
